Measurements from ChEMBL document CHEMBL1149020, “Sesterterpenes from a common marine sponge, Hyrtios erecta” (1986).

Organism: Mus musculus
Test: Antiinflammatory activity against PMA-induced ear inflammation in mouse assessed as decrease in ear weight at 50 ug/ear
Type: functional
Parameters: scale not given: the % may be the effect or the level left

Work on `CC(=O)O[C@@H]1C[C@H]2[C@@](C)(CC[C@H]3C(C)(C)CCC[C@]23C)[C@@H]2CC=C(C=O)C[C@]21C` [HYRTIAL] yielded an Activity of 43%.
